Data: US20160296628A1, “NANOPARTICLE DELIVERY SYSTEMS FOR CYTOLYTIC PEPTIDE PRODRUGS” (Washington University, priority 2015, published 2016)

Tests used:
red blood cells = test: Hemolysis of red blood cells; type: cell-based, New Zealand white rabbits
Method: For hemolysis measurements, citrated whole blood was collected from New Zealand white rabbits and separated by centrifugation at 2000 rpm for 10 minutes. Red blood cells were washed five times with Dulbecco's phosphate buffered saline and stored at 4° C. until use. In each assay, the peptide of interest was added to 1×10^7 red blood cells in PBS and incubated at 37° C. for one hour. Afterwards, intact red blood cells were pelleted by centrifugation at 2000 rpm for 5 minutes and absorbance of the supernatant at 450 nm was measured using a Bio-Rad Model 550 plate reader (Bio-Rad Laboratories, Hercules, Calif.) with reference wavelength 630 nm To determine percent lysis, absorbance readings were normalized to lysis with 0.1% Triton™ X-100.
To assess the impact of proteolytic cleavage on conjugate cytotoxicity and hemolytic activity, we repeated these experiments following cleavage of the conjugate by matrix metalloproteinase-9 (MMP-9). Recombinant MMP-9 (R&D Systems, Minneapolis, Minn.) was activated by incubation with 1 mM 4-aminophenylmercuric acetate (APMA; Sigma-Aldrich, St. Louis, Mo.) at 37° C. for 2 hours. Free APMA was removed by dialysis against TCNBZ buffer (150 mM NaCl, 50 mM Tris, 10 mM CaCl2, 10 μM ZnCl2, 0.05% (w/v) Brij-35, pH 7.75) for 2 hours using a Slide-A-Lyzer MINI Dialysis Device, 2K MWCO (Thermo Scientific, Waltham, Mass.) with a dialysate change at 1 hour. […]

B16F10 melanoma cells = test: XTT cytotoxicity assay, B16F10 melanoma cells; type: cell-based; settings: B16F10, MMP-9 added to culture media
2F2B endothelial cells = test: XTT cytotoxicity assay, 2F2B endothelial cells; type: cell-based; settings: 3 hours at 37° C., FIGS. 1A-1C
Method: (§1) The conjugate was compared to melittin and to melittin coupled only to linker in order to determine toxicity to endothelial cells and macrophages, as well as hemolysis. For assessment of cytotoxicity, 2F2B endothelial cells (CRL-2168; American Type Culture Collection, Manassas, Va.) or RAW 264.7 macrophages (TIB-71; American Type Culture Collection, Manassas, Va.) were plated in a 96-well plate at a concentration of 15,000 cells/well and allowed to attach overnight. The peptide of interest was then added and incubated with the cells for 3 hours at 37° C. Following this incubation, the agent of interest was removed, cells were washed with phosphate-buffered saline, and cell viability was determined by XTT assay (Biotium, Hayward, Calif.). This assay measures the ability of cellular oxidoreductases to reduce the XTT reagent, resulting in a colored product. Briefly, cells were incubated with the activated XTT reagent for 3 hours at 37° C. with shaking at 200 rpm. The absorbance of each well at 450 nm was then measured using a Bio-Rad Model 550 plate reader (Bio-Rad Laboratories, Hercules, Calif.) with reference wavelength 630 nm.
(§2) To assess the impact of proteolytic cleavage on conjugate cytotoxicity and hemolytic activity, we repeated these experiments following cleavage of the conjugate by matrix metalloproteinase-9 (MMP-9). […]

RAW 264.7 macrophages = test: XTT cytotoxicity assay, RAW 264.7 macrophages; type: cell-based; settings: 3 hours at 37° C., FIGS. 1A-1C
Method: as §1, §2

[1] = Peptide loading onto perfluorocarbon nanoparticles; type: physicochemical; settings: 1 mM peptide in phosphate-buffered saline, 4° C., 1 hour
Method: Conjugate-loaded nanoparticles were formulated by mixing known amounts of conjugate to non-targeted perfluorocarbon nanoparticles prepared in Example 1A and compared to melittin loading. Both melittin and the conjugate were produced by solid-phase peptide synthesis (melittin: GenScript, Piscataway, N.J.; conjugate: American Peptide Company, Sunnyvale, Calif.). Perfluorocarbon nanoparticles were incubated with 1 mM melittin or conjugate in phosphate-buffered saline at 4° C. for 1 hour. Nanoparticles were then isolated by centrifugation at 5,000 rpm for 15 minutes. The supernatant was removed and nanoparticles were washed three times with phosphate-buffered saline to remove free peptide.

Compound	hemolytic activity after cleavage by MMP-9 (red blood cells; conjugate 200 μM cleaved with 20 nM MMP-9, 3 hours at 37° C.)	change of cytolytic / hemolytic activity relative to melittin (red blood cells; rabbit red blood cells in PBS, 37° C., one hour, FIGS. 1A-1C)	cytotoxicity to melanoma cells (B16F10 melanoma cells)	change of cytolytic activity / cytotoxicity relative to melittin (2F2B endothelial cells)	change of cytolytic activity / cytotoxicity relative to melittin (RAW 264.7 macrophages)	loading, peptides per nanoparticle [1]
CC[C@H](C)[C@H](NC(=O)CNC(=O)[C@H](CCC(N)=O)NC(=O)CNC(=O)[C@H](C)NC(=O)[C@@H](NC(=O)CNC(=O)[C@H](CCC(N)=O)NC(=O)[C@@H]1CCCN1C(=O)CNC(=O)[C@H](C)NC(=O)[C@H](CCC(=O)O)NC(=O)[C@@H]1CCCN1C(=O)[C@H](CC(=O)O)NC(=O)[C@H](C)NC(=O)[C@H](CCC(=O)O)NC(=O)[C@H](C)NC(=O)[C@H](CC(=O)O)NC(=O)[C@H](C)NC(=O)[C@H](CCC(=O)O)NC(=O)[C@H](C)NC(=O)[C@H](CCC(=O)O)NC(=O)[C@@H]1CCCN1C(=O)[C@H](CCC(=O)O)NC(=O)[C@@H]1CCCN1C(=O)[C@H](C)NC(=O)[C@@H]1CCCN1C(=O)[C@H](CCC(=O)O)NC(=O)[C@@H]1CCCN1)[C@@H](C)CC)C(=O)NCC(=O)N[C@@H](C)C(=O)N[C@H](C(=O)N[C@@H](CC(C)C)C(=O)N[C@@H](CCCCN)C(=O)N[C@H](C(=O)N[C@@H](CC(C)C)C(=O)N[C@H](C(=O)N[C@H](C(=O)NCC(=O)N[C@@H](CC(C)C)C(=O)N1CCC[C@H]1C(=O)N[C@@H](C)C(=O)N[C@@H](CC(C)C)C(=O)N[C@H](C(=O)N[C@@H](CO)C(=O)N[C@@H](Cc1c[nH]c2ccccc12)C(=O)N[C@H](C(=O)N[C@@H](CCCCN)C(=O)N[C@@H](CCCNC(=N)N)C(=O)N[C@@H](CCCCN)C(=O)N[C@@H](CCCNC(=N)N)C(=O)N[C@@H](CCC(N)=O)C(=O)N[C@@H](CCC(N)=O)C(N)=O)[C@@H](C)CC)[C@@H](C)CC)[C@@H](C)O)[C@@H](C)O)C(C)C)C(C)C [Pro-P2]	restored	reduced melittin cytotoxicity and hemolytic activity by at least two orders of magnitude	substantially cytotoxic	reduced melittin cytotoxicity and hemolytic activity by at least two orders of magnitude	reduced melittin cytotoxicity and hemolytic activity by at least two orders of magnitude	–
CC[C@H](C)[C@H](NC(=O)CN)C(=O)NCC(=O)N[C@@H](C)C(=O)N[C@H](C(=O)N[C@@H](CC(C)C)C(=O)N[C@@H](CCCCN)C(=O)N[C@H](C(=O)N[C@@H](CC(C)C)C(=O)N[C@H](C(=O)N[C@H](C(=O)NCC(=O)N[C@@H](CC(C)C)C(=O)N1CCC[C@H]1C(=O)N[C@@H](C)C(=O)N[C@@H](CC(C)C)C(=O)N[C@H](C(=O)N[C@@H](CO)C(=O)N[C@@H](Cc1c[nH]c2ccccc12)C(=O)N[C@H](C(=O)N[C@@H](CCCCN)C(=O)N[C@@H](CCCNC(=N)N)C(=O)N[C@@H](CCCCN)C(=O)N[C@@H](CCCNC(=N)N)C(=O)N[C@@H](CCC(N)=O)C(=O)N[C@@H](CCC(N)=O)C(N)=O)[C@@H](C)CC)[C@@H](C)CC)[C@@H](C)O)[C@@H](C)O)C(C)C)C(C)C [melittin]	–	–	–	–	–	approximately 16,000 peptides per nanoparticle
